According to PubChem BioAssay (NCI):
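96-well plates; 48 h exposure; 5 concentrations. Endpoints by linear interpolation between flanking doses. Not reached: highest tested concentration assigned. The concentration for 50% growth inhibition is given as GI50. TGI marks complete inhibition of growth.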

Legend:
Assay in all cases: NCI-60 cell line screen, 48 h
NCI-H226 lung = tested on: NCI-H226 lung
SK-MEL-28 melanoma = tested on: SK-MEL-28 melanoma
HCC-2998 colon = tested on: HCC-2998 colon
MALME-3M melanoma = tested on: MALME-3M melanoma
NCI-H522 lung = tested on: NCI-H522 lung
UACC-62 melanoma = tested on: UACC-62 melanoma
HCT-116 colon = tested on: HCT-116 colon
SN12C renal = tested on: SN12C renal
HCT-15 colon = tested on: HCT-15 colon
CAKI-1 renal = tested on: CAKI-1 renal
RPMI-8226 leukemia = tested on: RPMI-8226 leukemia
SK-MEL-2 melanoma = tested on: SK-MEL-2 melanoma
PC-3 prostate = tested on: PC-3 prostate
ACHN renal = tested on: ACHN renal
MCF7 breast = tested on: MCF7 breast
RXF 393 renal = tested on: RXF 393 renal
SF-268 CNS = tested on: SF-268 CNS
K-562 leukemia = tested on: K-562 leukemia
OVCAR-5 ovarian = tested on: OVCAR-5 ovarian
LOX IMVI melanoma = tested on: LOX IMVI melanoma
SF-539 CNS = tested on: SF-539 CNS
HL-60(TB) leukemia = tested on: HL-60(TB) leukemia
786-0 renal = tested on: 786-0 renal
SK-MEL-5 melanoma = tested on: SK-MEL-5 melanoma
OVCAR-8 ovarian = tested on: OVCAR-8 ovarian
HOP-92 NSCLC = tested on: HOP-92 NSCLC
MDA-MB-435 = tested on: MDA-MB-435
SNB-19 CNS = tested on: SNB-19 CNS
COLO 205 colon = tested on: COLO 205 colon
SW-620 colon = tested on: SW-620 colon
HS 578T breast = tested on: HS 578T breast
UO-31 renal = tested on: UO-31 renal
OVCAR-4 ovarian = tested on: OVCAR-4 ovarian
NCI-H23 lung = tested on: NCI-H23 lung
SNB-75 CNS = tested on: SNB-75 CNS
T-47D breast = tested on: T-47D breast
MOLT-4 leukemia = tested on: MOLT-4 leukemia
UACC-257 melanoma = tested on: UACC-257 melanoma
HT29 colon = tested on: HT29 colon
SF-295 CNS = tested on: SF-295 CNS
SK-OV-3 ovarian = tested on: SK-OV-3 ovarian
IGROV1 ovarian = tested on: IGROV1 ovarian
KM12 colon = tested on: KM12 colon
SR leukemia = tested on: SR leukemia
HOP-62 NSCLC = tested on: HOP-62 NSCLC
U251 CNS = tested on: U251 CNS
DU-145 prostate = tested on: DU-145 prostate
EKVX NSCLC = tested on: EKVX NSCLC
NCI-H460 lung = tested on: NCI-H460 lung
A549 NSCLC = tested on: A549 NSCLC
TK-10 renal = tested on: TK-10 renal
BT-549 breast = tested on: BT-549 breast
MDA-MB-231 breast = tested on: MDA-MB-231 breast

What does the source list for `COc1cccc2c1-c1ccccc1C2=O`?
GI50 (NCI-H226 lung): 1190 nM; TGI (NCI-H226 lung): > 100 µM; GI50 (SK-MEL-28 melanoma): 3.85 µM; TGI (SK-MEL-28 melanoma): > 100 µM; GI50 (HCC-2998 colon): 3.35 µM; TGI (HCC-2998 colon): 47.1 µM; GI50 (MALME-3M melanoma): 6.54 µM; TGI (MALME-3M melanoma): > 100 µM; GI50 (NCI-H522 lung): 276 nM; TGI (NCI-H522 lung): 4.33 µM; GI50 (UACC-62 melanoma): 467 nM; TGI (UACC-62 melanoma): > 100 µM; GI50 (HCT-116 colon): 3.14 µM; TGI (HCT-116 colon): 17.4 µM; GI50 (SN12C renal): 4.85 µM; TGI (SN12C renal): > 100 µM; GI50 (HCT-15 colon): 2710 nM; TGI (HCT-15 colon): > 100 µM; GI50 (CAKI-1 renal): 543 nM; TGI (CAKI-1 renal): > 100 µM; GI50 (RPMI-8226 leukemia): 3.7 µM; TGI (RPMI-8226 leukemia): > 100 µM; GI50 (SK-MEL-2 melanoma): 2490 nM; TGI (SK-MEL-2 melanoma): > 100 µM; GI50 (PC-3 prostate): 2220 nM; TGI (PC-3 prostate): > 100 µM; GI50 (ACHN renal): 783 nM; TGI (ACHN renal): > 100 µM; GI50 (MCF7 breast): 1140 nM; TGI (MCF7 breast): > 100 µM; GI50 (RXF 393 renal): 329 nM; TGI (RXF 393 renal): 49.2 µM; GI50 (SF-268 CNS): 3.17 µM; TGI (SF-268 CNS): > 100 µM; GI50 (K-562 leukemia): 801 nM; TGI (K-562 leukemia): > 100 µM; GI50 (OVCAR-5 ovarian): 5.32 µM; TGI (OVCAR-5 ovarian): > 100 µM; GI50 (LOX IMVI melanoma): 2240 nM; TGI (LOX IMVI melanoma): > 100 µM; GI50 (SF-539 CNS): 1310 nM; TGI (SF-539 CNS): 5.76 µM; GI50 (HL-60(TB) leukemia): 2190 nM; TGI (HL-60(TB) leukemia): 6.37 µM; GI50 (786-0 renal): 3.15 µM; TGI (786-0 renal): > 100 µM; GI50 (SK-MEL-5 melanoma): 2310 nM; TGI (SK-MEL-5 melanoma): 13.5 µM; GI50 (OVCAR-8 ovarian): 3.33 µM; TGI (OVCAR-8 ovarian): > 100 µM; GI50 (HOP-92 NSCLC): 4.6 µM; TGI (HOP-92 NSCLC): 85.2 µM; GI50 (MDA-MB-435): 225 nM; TGI (MDA-MB-435): 790 nM; GI50 (SNB-19 CNS): 2520 nM; TGI (SNB-19 CNS): > 100 µM; GI50 (COLO 205 colon): 1910 nM; TGI (COLO 205 colon): 4.62 µM; GI50 (SW-620 colon): 2090 nM; TGI (SW-620 colon): > 100 µM; GI50 (HS 578T breast): 815 nM; TGI (HS 578T breast): > 100 µM; GI50 (UO-31 renal): 4.46 µM; TGI (UO-31 renal): > 100 µM; GI50 (OVCAR-4 ovarian): 2690 nM; TGI (OVCAR-4 ovarian): > 100 µM; GI50 (NCI-H23 lung): 4.2 µM; TGI (NCI-H23 lung): > 100 µM; GI50 (SNB-75 CNS): 431 nM; TGI (SNB-75 CNS): > 100 µM; GI50 (T-47D breast): 6.7 µM; TGI (T-47D breast): > 100 µM; GI50 (MOLT-4 leukemia): 4.25 µM; TGI (MOLT-4 leukemia): > 100 µM; GI50 (UACC-257 melanoma): > 100 µM; TGI (UACC-257 melanoma): > 100 µM; GI50 (HT29 colon): 3.03 µM; TGI (HT29 colon): 12.5 µM; GI50 (SF-295 CNS): 352 nM; TGI (SF-295 CNS): > 100 µM; GI50 (SK-OV-3 ovarian): 1030 nM; TGI (SK-OV-3 ovarian): 7.49 µM; GI50 (IGROV1 ovarian): 1460 nM; TGI (IGROV1 ovarian): > 100 µM; GI50 (KM12 colon): 3.42 µM; TGI (KM12 colon): > 100 µM; GI50 (SR leukemia): 3.66 µM; TGI (SR leukemia): > 100 µM; GI50 (HOP-62 NSCLC): 1650 nM; TGI (HOP-62 NSCLC): > 100 µM; GI50 (U251 CNS): 2900 nM; TGI (U251 CNS): > 100 µM; GI50 (DU-145 prostate): 2900 nM; TGI (DU-145 prostate): > 100 µM; GI50 (EKVX NSCLC): 9.49 µM; TGI (EKVX NSCLC): > 100 µM; GI50 (NCI-H460 lung): 628 nM; TGI (NCI-H460 lung): 11.5 µM; GI50 (A549 NSCLC): 2650 nM; TGI (A549 NSCLC): > 100 µM; GI50 (TK-10 renal): 9.8 µM; TGI (TK-10 renal): > 100 µM; GI50 (BT-549 breast): 1170 nM; TGI (BT-549 breast): > 100 µM; GI50 (MDA-MB-231 breast): 3.25 µM; TGI (MDA-MB-231 breast): 48.3 µM
